From US11555072B2, “A33 antibody compositions and methods of using the same in radioimmunotherapy” (MEMORIAL SLOAN KETTERING CANCER CENTER, priority 2017, dated 2023)

System: GPA33-expressing cancer cells
Test: T-cell dependent cytotoxicity (TDCC) assay with activated T cells
Format: cell-based, human
Method: T-cell dependent cytotoxicity (TDCC) assays. Cytotoxicity assays were performed using both ^51Cr-release assay and Pierce LDH-release assay (Thermo Fisher Scientific, Cambridge, Mass.). For both assays, T cells activated by exposure to anti-CD3/anti-CD28 Dynabeads for 14 days were subsequently used as effector cells, excepted for sorted cells from PBMCs, which were used for TDCC assay without prior stimulation. ^51Cr assay was performed as previously described in Cheng M et al., International Journal of Cancer 136:476-486 (2015). LDH assay was conducted according to the manufacturer's instructions with the following modifications. Briefly, for each assay well of a 96-well round-bottom plate, 1.5×10^4 target cells were incubated with variable number of effector cells, depending on the intended E:T ratios. Antibodies were then added at different dilutions and the plates were incubated at 37° C. for 16 hours. Each condition was done in triplicates. Supernatant was then transferred to a flat bottom plate with reaction substrate and incubated for 30 min before reading at 490 nm, with 680 nm as a reference wavelength. EC50 values were calculated by fitting the curves to a 4-parameter nonlinear regression model using GraphPad Prism.
Cancer cells were incubated with activated T cells at an effector to target ratio of 10:1 in the presence of 10-fold serial dilutions of huA33-BsAb. GPA33(−) melanoma cell line SKMEL5 and […] cell line TC32 were used as negative controls. […] Maximal level of cytotoxicity seemed to correlate with the level of FACS staining (FIG. 1(D) and FIG. 4(A)). Moreover, TDCC induced by huA33-BsAb was potent, with EC50 values in the pM range.

Q: Which results are given for “huA33-BsAb: huA33 IgG with humanized OKT3 scFv fused to light chain C-terminus, N297A and K322A; SEQ ID NO: 19 and 21”?
A: redirected T cell killing of GPA33-expressing cancer cells (LS174T, SW1222, Colo205, SNU16, activated T cells, E:T 10:1, 16 hours): specifically kill all GPA33-expressing cancer cells; redirected T cell killing of GPA33(−) control cells (SKMEL5 and TC32, E:T 10:1): sparing SKMEL5 and TC32; TDCC EC50 values (activated T cells, E:T 10:1): pM range
